pIC50: −log10 of the molar value.

We go through 13 compounds from patent US8513229B2, “4-Azetidinyl-1-phenyl-cyclohexane antagonists of CCR2” (Janssen Pharmaceutica NV, priority 2009, dated 2013).

In this experiment the target is T1, CCR2 (Homo sapiens, UniProt P41597).
T1 construct: host or cells: THP-1 human monocytic cells
T1 sequence (P41597 1-360 isoform P41597-2): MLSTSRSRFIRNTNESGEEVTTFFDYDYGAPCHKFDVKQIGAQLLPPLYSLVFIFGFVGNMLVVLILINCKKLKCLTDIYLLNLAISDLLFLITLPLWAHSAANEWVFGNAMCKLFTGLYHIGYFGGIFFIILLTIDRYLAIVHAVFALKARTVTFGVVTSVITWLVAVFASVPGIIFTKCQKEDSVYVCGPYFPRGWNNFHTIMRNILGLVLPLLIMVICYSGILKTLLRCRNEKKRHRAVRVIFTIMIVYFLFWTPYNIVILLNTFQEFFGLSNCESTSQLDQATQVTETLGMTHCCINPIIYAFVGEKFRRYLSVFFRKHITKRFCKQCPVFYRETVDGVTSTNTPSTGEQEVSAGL
The experiment can be described thus: MCP-1 Receptor Binding Assay in THP-1 Cells. As to conditions: 0.5 nM 125I labeled MCP-1, 2 hours at 30° C., read-out: Inhibition of MCP-1 Binding IC50 CCR2 Binding. The procedure:
MCP-1 Receptor Binding Assay in THP-1 Cells
Human monocytic cell line THP-1 cells were obtained from American Type Culture Collection (Manassas, Va., USA). […] The cell density was maintained […].
1 μM cold MCP-1 was used for nonspecific binding.
For the compound `CN(C)c1ccc(C(F)(F)F)cc1C(=O)NCC(=O)NC1CN(C2CCC(c3ccccc3)CC2)C1` (stereo not shown) [Example 69, 2-Dimethylamino-N-{[1-(4-phenyl-cyclohexyl)-azetidin-3-ylcarbamoyl]-methyl}-5-trifluoromethyl-benzamide], the pIC50 was 6.62.
The result for `O=C(CNC(=O)c1cc(C(F)(F)F)ccc1N1CCCC1)NC1CN(C2CCC(c3ccccc3)CC2)C1` (stereo not shown) [Example 70, N-{[1-(4-Phenyl-cyclohexyl)-azetidin-3-ylcarbamoyl]-methyl}-2-pyrrolidin-1-yl-5-trifluoromethyl-benzamide] reads 5.77; that for `O=C(CNC(=O)c1ccc(NCCO)c(C(F)(F)F)c1)NC1CN(C2CCC(c3ccccc3)CC2)C1` (stereo not shown) [Example 72, 4-(2-Hydroxy-ethylamino)-N-{[1-(4-phenyl-cyclohexyl)-azetidin-3-ylcarbamoyl]-methyl}-3-trifluoromethyl-benzamide], 6.40; that for `O=C(CNC(=O)c1ccc([N+](=O)[O-])c(C(F)(F)F)c1)NC1CN(C2CCC(c3ccccc3)CC2)C1` (stereo not shown) [Example 73, 4-Nitro-N-{[1-(4-phenyl-cyclohexyl)-azetidin-3-ylcarbamoyl]-methyl}-3-trifluoromethyl-benzamide], 6.31.
The result for `Nc1ccc(C(=O)NCC(=O)NC2CN(C3CCC(c4ccccc4)CC3)C2)cc1C(F)(F)F` (stereo not shown) [Example 74, 4-Amino-N-{[1-(4-phenyl-cyclohexyl)-azetidin-3-ylcarbamoyl]-methyl}-3-trifluoromethyl-benzamide] reads 7.34; that for `O=C(CNC(=O)c1cc(Br)cc(C(F)(F)F)c1)NC1CN(C2CCC(c3ccccc3)CC2)C1` (stereo not shown) [Example 77, 3-Bromo-N-{[1-(4-phenyl-cyclohexyl)-azetidin-3-ylcarbamoyl]-methyl}-5-trifluoromethyl-benzamide], 6.42.
For `O=C(CNC(=O)c1cc([N+](=O)[O-])cc(C(F)(F)F)c1)NC1CN(C2CCC(c3ccccc3)CC2)C1` (stereo not shown) [Example 78, 3-Nitro-N-{[1-(4-phenyl-cyclohexyl)-azetidin-3-ylcarbamoyl]-methyl}-5-trifluoromethyl-benzamide] the value was 6.00; for `Nc1cc(C(=O)NCC(=O)NC2CN(C3CCC(c4ccccc4)CC3)C2)cc(C(F)(F)F)c1` (stereo not shown) [Example 79, 3-Amino-N-{[1-(4-phenyl-cyclohexyl)-azetidin-3-ylcarbamoyl]-methyl}-5-trifluoromethyl-benzamide], 7.64; for `CS(=O)(=O)N(c1cc(C(=O)NCC(=O)NC2CN(C3CCC(c4ccccc4)CC3)C2)cc(C(F)(F)F)c1)S(C)(=O)=O` (stereo not shown) [Example 80, 3-Bis methanesulfonyl-N-{[1-(4-phenyl-cyclohexyl)-azetidin-3-ylcarbamoyl]-methyl}-5-trifluoromethyl-benzamide], 6.38.
Take `O=C(CNC(=O)c1cc(O)cc(C(F)(F)F)c1)NC1CN(C2CCC(c3ccccc3)CC2)C1` (stereo not shown) [Example 81, 3-Hydroxy-N-{[1-(4-phenyl-cyclohexyl)-azetidin-3-ylcarbamoyl]-methyl}-5-trifluoromethyl-benzamide]: the pIC50 was 4.96.
Consider `CC(C)(C)NC(=O)Nc1cc(C(=O)NCC(=O)NC2CN(C3CCC(c4ccccc4)CC3)C2)cc(C(F)(F)F)c1` (stereo not shown) [Example 82, 3-(3-tert-Butyl-ureido)-N-{[1-(4-phenyl-cyclohexyl)-azetidin-3-ylcarbamoyl]-methyl}-5-trifluoromethyl-benzamide], for which the pIC50 was 7.30.
The result for `COc1ccc(C2(N)CCC(N3CC(NC(=O)CNC(=O)c4cccc(C(F)(F)F)c4)C3)CC2)cc1` (stereo not shown) [Example 86, N-({1-[4-Amino-4-(4-methoxy-phenyl)-cyclohexyl]-azetidin-3-ylcarbamoyl}-methyl)-3-trifluoromethyl-benzamide] reads 6.49; that for “N-({1-[4-(4,4-bis-Methanesulfonylamino-phenyl)-cyclohexyl]-azetidin-3-ylcarbamoyl}-methyl)-3-trifluoromethyl-benzamide [Example 17]”, 7.57.
